In patent US10351759B2, “Methods of assessing oil field saturation through use of reactive partitioning tracers” (RESTRACK AS, priority 2014, dated 2019):

What was measured:
Assay type in all cases: physicochemical
[1] = oil/water partition coefficient (K-value), static batch experiments, model oil
[2] = oil/water partition coefficient (K-value), static batch experiments, field oil phases North field 1 and North field 2; details: ionic strength in aqueous phase 0.776, pH 6.2, 50° C.
[3] = K-values of tested compounds A to G
Description: Some tested compounds having other combinations of substitution and hydroxyalkyl group position include compounds A to G shown in FIG. 3.
These compounds have K-values measured as follows:
The K-values can vary with pH, as shown below for compounds B and F: […]

[4] = pH (aqueous phase) 6.2, ionic strength in aqueous phase 0.776, model oil (isooctane 60%/toluene 30%/1-octanol 10%), 50° C.
[5] = pH (aqueous phase) 7.0, ionic strength in aqueous phase 0.776, model oil (isooctane 60%/toluene 30%/1-octanol 10%), 50° C.
[6] = pH (aqueous phase) 8.0, ionic strength in aqueous phase 0.776, model oil (isooctane 60%/toluene 30%/1-octanol 10%), 50° C.

Compound | oil/water partition coefficient, K-value [1, 4] | oil/water partition coefficient, K-value [1, 5] | oil/water partition coefficient, K-value [1, 6] | oil/water partition coefficient, K-value ([1]; pH 6.2) | oil/water partition coefficient, K-value ([1]; pH 7) | oil/water partition coefficient, K-value ([1]; pH 8) | oil/water partition coefficient, K-value ([2]; oil phase North field 1) | oil/water partition coefficient, K-value ([2]; oil phase North field 2) | K-value ([3]; pH (aqueous phase) 6.2) | K-value ([3]; pH (aqueous phase) 7.0) | K-value ([3]; pH (aqueous phase) 8.0)
2,3-difluoro hydroxybenzoic acid [reference compound] | 0.0 | 0.0 | 0.0 |  |  |  |  |  |  |  | 
O=C(O)c1ccc(CO)cc1F [2-fluoro-4-(hydroxymethyl) benzoic acid, 2-Fluoro-4-(hydroxymethyl)benzoic acid] |  |  |  | 0.0 | 0.0 | 0.0 | 0.0 | 0.0 |  |  | 
COC(=O)c1c(F)ccc(CO)c1F [B, Methyl ester of 2-6-difluoro-3-hydroxymethyl benzoic acid] |  |  |  |  |  |  |  |  | 3.0 | 2.8 | 2.4
CCCCOC(=O)c1ccc(CO)cc1F [Butyl ester of 2-fluoro-4-(hydroxymethyl) benzoic acid] | 127.5 | 126.1 | 132.2 |  |  |  | 18.7 | 23.6 |  |  | 
CCOC(=O)c1ccc(CO)cc1F [Ethyl ester of 2-fluoro-4-(hydroxymethyl) benzoic acid] | 10.9 | 11.2 | 11.8 |  |  |  | 1.6 | 2.5 |  |  | 
CCOC(=O)c1cc(F)cc(CO)c1 [F, Ethyl ester of 3-fluoro-5-hydroxymethyl benzoic acid] |  |  |  |  |  |  |  |  | 6.7 | 6.3 | 6.1
COC(=O)c1ccc(CO)cc1F [Methyl ester of 2-fluoro-4-(hydroxymethyl) benzoic acid] | 3.2 | 3.4 | 3.3 |  |  |  | 0.6 | 0.8 |  |  | 
CCCOC(=O)c1ccc(CO)cc1F [Proply ester of 2-fluoro-4-(hydroxymethyl) benzoic acid] | 41.7 | 44.2 | 48.7 |  |  |  | 5.9 | 7.5 |  |  | 
